This note sets out measurements from US20060088545A1, “Use of inhibitors of the protease of the human immunodeficiency virus (hiv) to block cell migration and/or invasion, tissue infiltration and oedema for the therary of diseases associated therewith” (priority 2001, published 2006).

Entries after “also recorded” stand apart in the source; their conditions may differ.

For experiment [1], the system named is hepato-carcinoma (SK-Hep-1) cells. As to the kind of experiment: Invasion assay of SK-Hep-1 cells in response to bFGF. In kind it is cell-based, human. The settings on record: 0.1, 1 or 10 μM. As to the method: The invasion assays were performed in the Boyden chamber. Polycarbonate filters ([…]; Nucleoprobe, Cabin John, Md.) were coated first with collagen IV and then with Matrigel (Collaborative Biomedical Products) as described previously (Barillari et al., 1999b). […] Human recombinant bFGF (50 ng/ml) was placed in the lower compartment as chemo-attractant. […] Louis, Mo.). Ten random filter fields were counted by light microscopy as described previously (Barillari et al., 1999b).

The subject of experiment [2] is bFGF. As to the kind of experiment: bFGF production by KS cells (ELISA). The format is cell-based, human. The following applies: 0.1, 1 and 10 μM; 5 days + 24 hours. As to the method:
(§1) After 24 hours of incubation, the supernatants of the cultures were tested by ELISA (R & D Systems, Minneapolis, Minn., USA) to determine the quantity of IL-6 present in the medium. The quantity of IL-6 is expressed in pg/ml of supernatant. The same tests were carried out for bFGF, VEGF, IL-1α and IL-1β by means of commercial ELISA kits.
(§2) KS cells secrete cytokines with an inflammatory, oedemigenic, angiogenic and proliferative activity with autocrine and paracrine effects (Ensoli and Stürzl, 1998). These factors mediate all the processes required for KS-like lesions formation (angiogenesis, cellular proliferation and invasion, inflammatory Infiltration, oedema) and vascular permeability and oedema induced by KS cells in nude mice. […] The quantity of bFGF, VEGF, IL-1 and IL-6 was dosed with immuno-enzymatic trials in the supernatants of the KS cells after 24 hours of culture in the absence of serum and in the continuous presence of the two HIV-PI (ELISA). […] Furthermore IL-6 plays a key role in the multicentric Cstleman's diseases and in the growth of lymphomas (Tosato et al., 1993; Peterson and Frizzera, 1993; Asou et al., 1998; Ramsay et al., 1994), another type of tumour whose incidence is reduced in patients treated with HIV-PI (International Collaboration on HIV and Cancer 2000).
(In general: ELISA stands for enzyme-linked immunosorbent assay.)

Experiment [3] concerns KS-like lesions induced by KS cells (KS12). Put plainly: Regression of KS-like lesions induced by KS cells in nude mice, no drug pre-treatment. In kind it is in vivo. The settings on record: treatment started on the day of KS cell inoculation, 5 days. As to the method:
Indinavir and saquinavir can also promote KS regression in the absence of any drug pre-treatment. […] Treatment was then continued for 5 days, until sacrifice. The mean size (cm^2) of the lesions present at the injection site evaluated by daily caliper measurement and calculated as the product of the two major lesion diameters is shown.
To determine whether HIV-PI can also promote KS regression in the absence of any drug pre-treatment, experiments were also performed by treating mice with HIV-PI at the time of KS cell inoculation.

The test system of experiment [4] is breast carcinoma cells (MDA-MB-468). As to the kind of experiment: Cell growth assay of MDA-MB-468 cells. The format is cell-based, human. The following applies: 10 μM; 4 days. As to the method:
Shown is the result of a representative cell growth assay performed on the breast carcinoma cells. Human breast carcinoma cells (MDA-MB468; ATCC) were plated in triplicate (8×10^4 cells/well) in 12-well plates. […] Ensoli et al., 1994b): For all the in vitro studies HIV-PI as endotoxin-free pure powder (a kind gift of Merck Sharp & Dohme and Roche) were resuspended in distilled water. Assays were repeated at least three times.

For experiment [5], the system named is dermal microvascular endothelial cells (H-DMVEC). As to the kind of experiment: Invasion assay of dermal microvascular endothelial cells in response to bFGF. In kind it is cell-based, human. As to the method:
Both assays were performed by the Boyden chamber separated in two compartments by polycarbonate filters with 12 μm pores (Nucleoprobe, Cabin John, Md.), coated with collagen IV (Collaborative Biomedical Products) for migration, or with collagen IV and Matrigel together for invasion, as described previously (Barillari et al., 1999b). […] After 5 hours (migration) or 6 hours (Invasion) of incubation, the non-migrated cells present on the top surface of the filters were mechanically removed, while the migrated cells on the bottom surface were fixed in methanol and stained with toluidine blue (Sigma Chemical Co., St. Louis, Mo.). The cells present in 5-10 microscopic fields of the filters, chosen at random, were counted as described previously (Barillari et al., 1999b).
Basal invasion in the absence of bFGF was assumed as 100%.

Experiment [6] deals with bFGF-induced angiogenic KS-like lesions. As to the kind of experiment: bFGF-induced angiogenic KS-like lesions in nude mice. The format is in vivo. The following applies: for No. of mice with macroscopic vascular lesions/No. of inoculated mice / mice with macroscopic vascular lesions (%): bFGF 1 μg in matrigel, indinavir 1.4 mg/day or saquinavir 1 mg/day, intragastric gavage, 7 days; for Tissue staining (area % ± SD) CD31 / Tissue staining (area % ± SD) FVIII-RA: bFGF 1 μg, lesional area stained. As to the method: The mice were then inoculated with bFGF (1 μg) or with its diluting buffer in the presence of matrigel (Kleiner et al., 1993; Ensoli et al., 1994a; Samaniego et al., 1998; Barillari et al., 1999a).
The mice were then sacrificed and the inoculation areas examined both macroscopically and microscopically for the presence of KS-like angioproliferative lesions (Kleiner et al., 1993; Ensoli et al., 1994a; Samaniego et al., 1998; Barillari et al., 1999a).
At the time of sacrifice, the inoculation sites were examined to check for the presence of macroscopic angioproliferative lesions and analyzed microscopically after haematoxilin & eosin (H&E) staining or frozen for histochemical analysis of endothelial the cell markers FVIII-RA and CD31. Here are listed the number (No.) of mice that developed lesions with respect to the number (No.) of mice inoculated, and the percentage (%) of mice that developed lesions. […] Angiogenesis was quantitated by determining the tissue area stained for FVIII-RA or CD31. Shown are the percentages [mean±standard deviations (SD)] of lesional area stained for FVIII-RA or CD31 that were quantitated as described below.
These doses correspond, respectively, to the whole dose, double or half the dose of HIV-PI used daily in patients infected with HIV (Deeks et al., 1997). […] The control animals were treated with the same volume of saline solution. On the third day the mice were inoculated subcutaneously at the level of the lower dorsal quadrant with 1 μg of recombinant bFGF (Roche, Mannheim, Germany) diluted in 0.2 ml of phosphate buffer (PBS)-0.1% bovine […] albumin (BSA) or with its re-suspending buffer, mixed with 0.2 ml of Matrigel (Collaborative Biomedical Products, Bedford, Mass.) prior to inoculation, as described previously (Ensoli et al., 1994a). Four days later the mice were sacrificed, the inoculation sites were examined to check for the presence of macroscopic KS-like angioproliferative lesions, and sections of tissue histologically examined after staining with H&E. For immunohistochemical analysis, frozen tissue sections were fixed with cold acetone and stained with rabbit anti-human FVIII-RA polyclonal antibodies (Ab) (Dako, Glostrup, Denmark; 1:2000 dilution) or anti-mouse CD31 rat monoclonal Ab (BD Biosciences; 1:1000 dilution). Digital images (200× magnification) were captured by a color CCD camera (Zeiss) and analyzed by acquiring 4-9 microscopic fields (about 0.15 mm^2 per field) corresponding to the whole histologic sections. Staining was quantitated by the KS300 (Zeiss) image analysis software and expressed as the percentage of positive area over the total tissue area.

The test system of experiment [7] is IL-1β. Put plainly: IL-1β production by KS cells (ELISA). In kind it is cell-based, human. The settings on record: 0.1, 1 and 10 μM, 5 days + 24 hours. As to the method:
as §1, §2

On to `CC(C)(C)NC(=O)[C@@H]1CN(Cc2cccnc2)CCN1C[C@@H](O)C[C@@H](Cc1ccccc1)C(=O)N[C@H]1c2ccccc2C[C@H]1O` [Indinavir, indinavir], for which the “invasive capacity in response to bFGF” value in experiment [1] is on record as “inhibit”. Moreover, the “production of bFGF by KS cells” value in experiment [2] is “reduced”. For the same molecule, in experiment [3], the “regression of KS-like lesions (lesion size)” value is given as “promote the regression”. Also, the proliferation entry in experiment [4] is recorded as “do not interfere”. Also, the “invasion in response to bFGF” value in experiment [5] was “inhibit”. Also, in experiment [6], the “No. of mice with macroscopic vascular lesions/No. of inoculated mice” value is reported as 8/28, the “mice with macroscopic vascular lesions (%)” value is 28%, the “Tissue staining (area % ± SD) CD31” value stood at 1.00 ± 0.6% and the “Tissue staining (area % ± SD) FVIII-RA” value turned out to be 1.32 ± 1.2%. In experiment [6] (in comparison with mice inoculated with bFGF and not treated), the “angiogenesis and infiltration of the cells, microscopic examination of the inoculation sites” value is reported as “marked reduction”. Further, the “production of IL-1β by KS cells” value in experiment [7] is reported as “inhibited”. Moreover, the “production of IL-1β by KS cells” value in experiment [7] (listed as indinavir) is “reduced”.
As for `CC(C)(C)NC(=O)[C@@H]1C[C@@H]2CCCC[C@@H]2CN1C[C@@H](O)[C@H](Cc1ccccc1)NC(=O)[C@H](CC(N)=O)NC(=O)c1ccc2ccccc2n1` [Saquinavir, saquinavir], the “invasive capacity in response to bFGF” value in experiment [1] is “inhibit”. The “production of bFGF by KS cells” value in experiment [2] is given as “reduced”. Also, in experiment [3], the “regression of KS-like lesions (lesion size)” value was “promote the regression”. In experiment [4], the proliferation result is given as “do not interfere”. Also, the “invasion in response to bFGF” value in experiment [5] is on record as “inhibit”. Besides, in experiment [6], the “No. of mice with macroscopic vascular lesions/No. of inoculated mice” value was 7/28, the “mice with macroscopic vascular lesions (%)” value worked out at 25%, the “Tissue staining (area % ± SD) CD31” value is given as 0.83 ± 0.3% and the “Tissue staining (area % ± SD) FVIII-RA” value stood at 1.13 ± 0.6%. In experiment [7], the “production of IL-1β by KS cells” value is on record as “reduced; also recorded: inhibited”.
